Here are results for ten compounds from patent US8541598B2, “Biodegradable solvents for the chemical industry” (Dublin City University, priority 2007, dated 2013).

One series relates to B. subtilis. The series is described as follows: Percentage kill of bacteria by KG20. It counts as cell-based, Bacillus subtilis. From the text: (§1) A test reference study with 1-methyl-3-decyloxy-carbonyl methylimidazole bromide salt KG20, known to be toxic due to the long alkyl chain, has been completed to provide reference data. This experiment compares, for the same side chain length, the impact of the presence of the oxygen (e.g. KG15) on toxicity.

The next series relates to S. aureus. The series is described as follows: Percentage kill of bacteria by KG20. It counts as cell-based, Staphylococcus aureus.
Excerpt: as §1

Another series deals with Salmonella sp. The series is described as follows: Percentage kill of bacteria by KG20. It counts as cell-based.
Excerpt: as §1

The subject of a further series is Klebsiella sp. Nature of the series: Percentage kill of bacteria by KG20. It counts as cell-based.
Excerpt: as §1

Another series deals with Enterococcus sp. Nature of the series: Percentage kill of bacteria by KG20. It counts as cell-based.
Excerpt: as §1

In series [1] the test system is Pseudomonas aeruginosa, Escherichia coli, Klebsiella sp., Salmonella sp., Staphylococcus aureus, Enterococcus sp., Bacillus subtilis. The series is described as follows: Antimicrobial activity / minimum inhibitory concentrations on seven strains of bacteria. It counts as cell-based. Conditions: seven strains of bacteria. As for the experimental part: (§2) Seven strains of bacteria were used in the assessment of the antimicrobial activity of the ILs claimed: 4 gram negative and three gram positive as shown below.
(§3) A wide concentration range was tested (0-20000 μg/ml). The concentrations screened for antibacterial activity are generally from 2 μg/ml to 1000 μg/ml (Table 6). […] The concentration range screened for the ILs containing ethers was up to 20000 μg/ml. At these high concentrations a lack of antibacterial activity is a significant result.

Another series concerns P. aeruginosa. The series is described as follows: Percentage kill of bacteria by KG20. It counts as cell-based, Pseudomonas aeruginosa.
Excerpt: as §1

For a further series, the system named is E. coli. The series is described as follows: Percentage kill of bacteria by KG20. It counts as cell-based, Escherichia coli.
Excerpt: as §1

The subject of the next series is microbes. Particulars: literature (Bodor et al.); cited from earlier work.
The nature of series [2]: Antimicrobial activity / minimum inhibitory concentrations on seven strains of bacteria. It counts as cell-based. Conditions: read-out: MIC values. As for the experimental part:
as §2, §3

The mark [3] stands for this setting: seven strains, not split, range tested 0-20000 μg/ml.

“Also recorded” adds a separate entry of the source. Read-outs that look alike come from different tables or passages of the source.

For orientation: MIC means the smallest concentration in the dilution series that meets the test's criterion for growth inhibition.

In the case of `CCCCCCCCCCOC(=O)Cn1cc[n+](C)c1.[Br-]` [KG20, 3-methyl-1-(decanoxycarbonylmethyl)imidazolium bromide], the Percentage kill in the series on B. subtilis (3.9 μg/ml) is recorded as 0%; with B. subtilis (7.8 μg/ml), 0%; with B. subtilis (15.62 μg/ml), 0%; with B. subtilis (31.25 μg/ml), 0%; in the series on B. subtilis (62.5 μg/ml), 0%; in the series on B. subtilis (125 μg/ml), 80.2%. Moreover, the Percentage kill in the series with B. subtilis (250 μg/ml) is on record as 81.5%; with B. subtilis (500 μg/ml) it was 83.2%; in the series with B. subtilis (1000 μg/ml), 100%; with S. aureus (3.9 μg/ml), 66%; in the series on S. aureus (7.8 μg/ml), 90%; with S. aureus (15.62 μg/ml), 88.2%. Also, the Percentage kill was found to be 86.4% in the series with S. aureus (31.25 μg/ml); 90.3% in the series with S. aureus (62.5 μg/ml); 80.7% with S. aureus (125 μg/ml); 93.8% with S. aureus (250 μg/ml); 96% in the series on S. aureus (500 μg/ml); 0% in the series on Salmonella sp. (3.9 μg/ml). The Percentage kill amounted to 0% in the series with Salmonella sp. (7.8 μg/ml); 0% with Salmonella sp. (15.62 μg/ml); 0% in the series on Salmonella sp. (31.25 μg/ml); 10% in the series with Salmonella sp. (62.5 μg/ml); 58% in the series with Salmonella sp. (125 μg/ml); 73.5% in the series with Salmonella sp. (250 μg/ml). Further, the Percentage kill is 88% in the series on Salmonella sp. (500 μg/ml); 86% in the series with Salmonella sp. (1000 μg/ml); 0% in the series with Klebsiella sp. (3.9 μg/ml); 0% in the series on Klebsiella sp. (7.8 μg/ml); 0% with Klebsiella sp. (15.62 μg/ml); 0% in the series with Klebsiella sp. (31.25 μg/ml). In addition, the Percentage kill with Klebsiella sp. (62.5 μg/ml) is 7%; in the series on Klebsiella sp. (125 μg/ml), 21%; in the series on Klebsiella sp. (250 μg/ml), 64%; with Klebsiella sp. (500 μg/ml), 68.2%; with Klebsiella sp. (1000 μg/ml), 91.8%; with Enterococcus sp. (3.9 μg/ml), 6.5%. For the same compound, the Percentage kill was determined as 6% in the series with Enterococcus sp. (7.8 μg/ml); 23% with Enterococcus sp. (15.62 μg/ml); 18.7% with Enterococcus sp. (31.25 μg/ml); 48.7% with Enterococcus sp. (62.5 μg/ml); 49.5% in the series on Enterococcus sp. (125 μg/ml); 83.4% with Enterococcus sp. (250 μg/ml). In addition, the Percentage kill in the series on Enterococcus sp. (500 μg/ml) came to 84%; in the series with Enterococcus sp. (1000 μg/ml), 96.4%; with P. aeruginosa (3.9 μg/ml), 0%; with P. aeruginosa (7.8 μg/ml), 0%; in the series with P. aeruginosa (15.62 μg/ml) it was 0%; in the series on P. aeruginosa (31.25 μg/ml), 6%. Further, the Percentage kill was found to be 0% in the series with P. aeruginosa (62.5 μg/ml); 55.5% in the series on P. aeruginosa (125 μg/ml); 82% with P. aeruginosa (250 μg/ml); 82% in the series on P. aeruginosa (500 μg/ml); 100% in the series with P. aeruginosa (1000 μg/ml); 10% with E. coli (3.9 μg/ml). Also, the Percentage kill came to 8.5% with E. coli (7.8 μg/ml); 17% with E. coli (15.62 μg/ml); 28% in the series with E. coli (31.25 μg/ml); 37% with E. coli (62.5 μg/ml); 92% in the series with E. coli (125 μg/ml); 92% in the series on E. coli (250 μg/ml). Also, the Percentage kill was found to be 82% in the series with E. coli (500 μg/ml) and 91% in the series on E. coli (1000 μg/ml). Besides, the “toxicity / antibacterial activity in words” value in series [1] is given as “toxic to all the different bacteria screened; also recorded: potent antibacterial”.
Regarding `CCCCCCCCCCCC(=O)OCn1cc[n+](C)c1.[Cl-]` [compound 6, 1-[(n-Dodecanoyloxy)methyl]-3-methylimidazolium Chloride], the “antimicrobial activity in words” value in the series with microbes is listed as “effective antimicrobial activity at ppm concentrations; also recorded: potent antibacterials”.
Consider `CCC(C)OCCOC(=O)Cn1cc[n+](C)c1C.[Br-]` (centres unmarked) [KG16, 2,3-dimethyl-1-(2-[2-butoxy]ethoxycarbonylmethyl)imidazolium bromide], for which the MIC in [2] was > 20 mg/mL. Moreover, in [1], the “toxicity / antibacterial activity in words” value is on record as “non-toxic”.
On to `CCCOCCOCCOC(=O)C[n+]1ccn(C)c1` [KG42, 3-methyl-1-(2-[2-propoxyethoxy]ethoxycarbonylmethyl)imidazolium octylsulfate], for which, in series [2] (setting [3]), the MIC was > 20 mg/mL. Besides, the “toxicity / antibacterial activity in words” value in series [1] is “non-toxic”.
Take `COCCOCCOC(=O)C[n+]1ccn(C)c1` [KG40, 3-methyl-1-(2-[2-methoxyethoxy]ethoxycarbonylmethyl)imidazolium octylsulfate]: the MIC in [2] (setting [3]) was > 20 mg/mL. For the same compound, the “toxicity / antibacterial activity in words” value in series [1] was “non-toxic”.
Consider `COCCOC(=O)C[n+]1ccn(C)c1` [KG36, 3-methyl-1-(2-[2-methoxy]ethoxycarbonylmethyl)imidazolium octylsulfate], for which the MIC in [2] (setting [3]) was > 20 mg/mL. For the same compound, the “toxicity / antibacterial activity in words” value in series [1] is listed as “non-toxic”.
On to `COCCOCCOC(=O)Cn1cc[n+](C)c1.[Br-]` [KG12, 3-methyl-1-(2-[2-methoxyethoxy]ethoxycarbonylmethyl)imidazolium bromide], for which, in series [2] (setting [3]), the MIC is > 20 mg/mL. Besides, the “toxicity / antibacterial activity in words” value in [1] is “non-toxic”.
`CCCCOCCOC(=O)C[n+]1ccn(C)c1C` [KG44]: in [2], the MIC was > 20 mg/mL. Besides, the “toxicity / antibacterial activity in words” value in [1] is “non-toxic”.
For the compound `COCCOCCOC(=O)Cn1cc[n+](C)c1C.[Br-]` [KG18, 2,3-dimethyl-1-(2-[2-methoxyethoxy]ethoxycarbonylmethyl)imidazolium bromide], the MIC in series [2] (setting [3]) was > 20 mg/mL. For the same compound, the “toxicity / antibacterial activity in words” value in [1] is “non-toxic”.
For `COCCN(CCOC)C(=O)C[n+]1ccn(C)c1` [KG405], in that order: > 20 mg/mL and “low toxicity; also recorded: non-toxic”.
